# Assays:
# Assay type in all cases: cell-based, human
# BxPC-3 cells = assay: DNA fiber fluorography dual labeling (IdU/CldU)
# Source text: (§1) In our search for Pol δ inhibitors, we focused on the identification of inhibitors that can inhibit Pol δ when it is actively replicating DNA. DNA fiber fluorography with dual labeling technique^24 provides a possibility that we can analyze the effect of zelpolib on ongoing DNA replication at a single molecule level. Both IdU and CldU are halogenated thymidine analogs that can be incorporated into DNA. Subsequent DNA fiber spreading and antibody detection are used to directly visualize the replicated DNA fiber. The incorporation of IdU gives rise to red fibers and CldU produces green fibers with subsequent antibody detection^24. Therefore, in this assay, the cells were first incubated with IdU for 20 minutes in the absence of zelpolib (FIG. 3B) to establish ongoing DNA replication and the basal replication rates of each individual DNA fibers. Subsequently, CldU were added to cell culture either with or without simultaneous addition of zelpolib. DNA replication were allowed for an additional hour. […] In order to be certain that this inhibition was not cell line dependent, we conducted an identical experiment on a triple-negative breast cancer cell line as well. […] The DNA fibers (FIG. 3C) from a single field of view (FIG. 9) were realigned for visual comparison.
# (§2) To analyze the effect of zelpolib, DNA fiber fluorography was used with dual labeling technique as reported. Cells were seeded in 6-well plates (Cellstar) and allowed to attach for 24 hours before pulse labeled with 25 μM IdU for 20 min. Subsequently, cells were washed three times with PBS and pulse labeled with 250 μM of CldU (Sigma) for 60 min in the presence or absence of zelpolib. Cell lysis and fiber spreading were conducted according to Schwab & Niedzwiedz. IdU and CldU were detected by primary mouse anti-BrdU antibody (BD biosciences, 1:25) and rat anti-BrdU antibody (Abcam, 1:200) and secondary fluorescent antibodies Alexa anti-mouse 594 (ThermoFisher scientific, 1:625) and Alexa anti-rat 488 (ThermoFisher scientific, 1:200). DNA fibers were imaged on fluorescence microscope and fiber lengths were measured using Image-J software. Statistics were calculated using GraphPad prism software.
# HCC1395 cells = assay: DNA fiber fluorography dual labeling (IdU/CldU); conditions: all three concentrations, zelpolib added with CldU for 60 min
# Source text: as §1, §2
# HEK 293T cells = assay: Two plasmid DR-GFP/I-SceI double strand break repair (homologous recombination) assay
# Source text: In addition to being indispensable for the duplication of chromosomes, Pol δ also plays critical roles in various DNA repair pathways^32. It has been shown that Pol δ is the preferred polymerase for the D-loop extension during homologous recombination repair^33. Thus, we investigated the effect of zelpolib on HR efficiency. We used the two plasmid DR-GFP assay developed by Nakanishi et al^34, which is a modified version of the initial method^35. The first plasmid contains a mutant GFP that has lost the ability to fluoresce. The second plasmid contains the coding region of a restriction enzyme, I-SceI. The co-transfection of the two plasmids will result in the expression of I-SceI, which can digest the DR-GFP plasmid at the mutation site leading to the formation of a double strand break. […] Therefore, the percentage of fluorescent cells is the readout of the efficacy of HR. […] The efficacy of HR was analyzed about 40 hours later by flow cytometry.
# The efficacy of homologous recombination was analyzed by a two-plasmids system according to published protocol^34,35. […] Cellular fluorescence for GFP was measured by flow cytometry (Beckman coulter, MoFlo XDP). About 32,000 cells were analyzed per sample. […] The experiment was repeated three more times and statistics were calculated using GraphPad prism software.
smiles,measurement,setting,value
COC(=O)c1cc(-c2ccccc2)sc1NC(=S)NNC(=O)CCc1ccc(O)c(O)c1 [zelpolib],inhibition of DNA fiber extension,"BxPC-3 cells; 20 μM, 60 minutes exposure, cell line not stated",about 40%
same,inhibition of ongoing cellular DNA replication (green/red fiber length ratio),"BxPC-3 cells; BxPC-3, zelpolib added with CldU for 60 min",concentration dependent inhibition of ongoing cellular DNA replication
same,cellular uptake time,BxPC-3 cells; inferred from fiber inhibition at 20 μM with 60 minutes total exposure,less than 30 minutes
same,inhibition of ongoing DNA replication (green/red fiber length ratio),HCC1395 cells,significant inhibition of ongoing DNA replication
same,reduction in HR efficacy,HEK 293T cells; 20 μM zelpolib,comparable to those induced by siRNA knockdown of BRCA1 or BRCA2 individually
same,inhibition of homologous recombination (percentage of GFP fluorescent cells),"HEK 293T cells; two concentrations, about 40 hours",dose-dependent inhibition of HR

# — US11324720B2, “Antiproliferative DNA polymerase inhibitor” (NEW YORK MEDICAL COLLEGE, priority 2018, dated 2022)
